Measured values published in patent US20120190752A1, “EXO-S-MECAMYLAMINE METHOD, USE, AND COMPOUND FOR TREATMENT” (Targacept Inc., priority 2009, published 2012).

Test system: subjects with major depressive disorder (MDD) who were inadequate responders to citalopram
Test: QIDS-SR, Phase 2b add-on trial
Format: in vivo, human
Text: The 30 item Inventory of Depressive Symptomatology (IDS) (Rush et al. 1986, 1996) and the 16 item Quick Inventory of Depressive Symptomatology (QIDS) (Rush et al. 2003) are designed to assess the severity of depressive symptoms. Both the IDS and the […] are available in the clinician (IDS-C30 and QIDS-C16) and self-rated versions (IDS-SR30 and QIDS-SR16). The IDS and QIDS assess all the criterion symptom domains designated by the American Psychiatry Association Diagnostic and Statistical Manual of Mental Disorders—4th edition (DSM-IV) (APA 1994) to diagnose a major depressive episode. These assessments can be used to screen for depression, although they have been used predominantly as measures of symptom severity. The seven day period prior to assessment is the usual time frame for assessing symptom severity. The […] and QIDS-SR16 cover only the nine diagnostic symptom domains used to characterize a major depressive episode, without items to assess atypical, melancholic or their commonly associated symptoms. All 16 items on the QIDS are included within the IDS. The IDS-C30 and […] include the criterion symptoms, as well as commonly associated symptoms (e.g. anxiety, irritability) and items relevant to melancholic, or atypical symptom features. Both versions are sensitive to change, with medications, psychotherapy, or somatic treatments, making them useful for both research and clinical purposes. The psychometric properties of both the IDS and QIDS, have both been established in various study samples. See Rush A J, Trivedi M H, Ibrahim H M, et al., The 16-item Quick Inventory of Depressive Symptomatology (QIDS), Clinician Rating (QIDS-C), and Self-Report (QIDS-SR): a psychometric evaluation in patients with chronic major depression. Biol Psychiatry.; 54: 573-583 (2003).
In more detail, a multi-center double-blind, randomized, placebo-controlled, parallel group, flexible dose titration study of TC-5214 as adjunctive therapy in subjects with major depressive disorder (MDD) who were inadequate responders to citalopram was conducted in centers in the US and India. The study consisted of a screening period, baseline/washout period, open-label phase, double-blind phase, and a follow-up visit. Subject participation in the study could continue for up to 16 weeks of treatment. Following a washout period of up to 28 days for other antidepressants, subjects with MDD and a MADRS total score >/=28 and a Clinical Global Impression-Severity (CGI-S) score >/=4 were enrolled on Day 1 into an open-label citalopram-only phase of the study. This phase lasted 8 weeks, with citalopram (CIT) dose increased from a once-daily dose of 20 mg (Day 1 through Week 4) to 40 mg (Week 4 through Week 8). A total of 579 subjects entered the open-label citalopram phase. At Week 8, subjects who tolerated 40 mg CIT, but whose MADRS score was reduced <50% from baseline and no lower than 17, and CGI-S≧4, were considered inadequate responders. These subjects (n=270) were randomized in a double-blind fashion to receive either placebo or TC-5214-23 as add-on therapy to continued CIT. The double-blind phase of the study also lasted 8 weeks (Week 8 to Week 16). Study drug, TC-5214-23 or placebo, was started at 2 mg daily (1 mg twice per day [BID] dosing), added on to continuing CIT (40 mg PO qd). After 2 weeks of treatment, the dose of TC-5214 could be increased to 4 mg (2 mg BID) or continued unchanged, with up-titration based upon good tolerability and inadequate therapeutic response. After a further 2 weeks, the dose of TC-5214 could be increased again to 8 mg (4 mg BID) if judged appropriate by the investigator, based upon good tolerability and inadequate therapeutic response. At any time during the double-blind phase of the study, placebo or TC-5214-23 could be reduced to the previous dose level following the emergence of unacceptable adverse events (AEs). […] At this follow-up, any signs or symptoms of relapse were evaluated. […]

[1] = ITT N=265, week of double-blind treatment
[2] = ITT and PP, at every assessment week, result in words
[3] = ITT, Double Blind Week 18 (Follow-up)
[4] = ITT, Double Blind Week 18 LOCF (Follow-up), change from Week 16
[5] = PP, Double Blind Week 16 LOCF (change from Week 8)
[6] = PP, Double Blind Week 18 (Follow-up)
[7] = PP, Double Blind Week 18 LOCF (Follow-up), change from Week 16

CNC1(C)C2CCC(C2)C1(C)C (stereo in doubt) [TC-5214, (S)—N,2,3,3-tetramethylnorbornan-2-amine]
onset of separation from placebo, subject rated remission QIDS-SR≦5 (FIG. 2) [1]: ≤ 2 week | onset of separation from placebo, subject rated response QIDS-SR≧50% (FIG. 3) [1]: ≤ 1 week | QIDS-SR score change from baseline compared with placebo (ITT and PP populations, result in words): statistically significant decreases (improvements) | QIDS remission proportion compared with placebo [2]: higher proportion of subjects with remission | QIDS responders (reduction from baseline ≧50%) proportion compared with placebo [2]: higher proportion of responders | QIDS reduction from baseline ≧50%: Subjects with Response (number) (ITT, Double Blind Week 10): 29 | QIDS reduction from baseline ≧50%: Subjects with Response (percentage) (ITT, Double Blind Week 10): 22% | QIDS reduction from baseline ≧50%: Subjects without Response (number) (ITT, Double Blind Week 10): 104 | QIDS reduction from baseline ≧50%: Subjects without Response (percentage) (ITT, Double Blind Week 10): 78% | QIDS score ≦5: Subjects with Remission (number) (ITT, Double Blind Week 10): 19 | QIDS score ≦5: Subjects with Remission (percentage) (ITT, Double Blind Week 10): (14%) | QIDS score ≦5: Subjects without Remission (number) (ITT, Double Blind Week 10): 114 | QIDS score ≦5: Subjects without Remission (percentage) (ITT, Double Blind Week 10): (86%) | QIDS reduction from baseline ≧50%: Subjects with Response (number) (ITT, Double Blind Week 12): 44 | QIDS reduction from baseline ≧50%: Subjects with Response (percentage) (ITT, Double Blind Week 12): 33% | QIDS reduction from baseline ≧50%: Subjects without Response (number) (ITT, Double Blind Week 12): 89 | QIDS reduction from baseline ≧50%: Subjects without Response (percentage) (ITT, Double Blind Week 12): 67% | QIDS score ≦5: Subjects with Remission (number) (ITT, Double Blind Week 12): 25 | QIDS score ≦5: Subjects with Remission (percentage) (ITT, Double Blind Week 12): (19%) | QIDS score ≦5: Subjects without Remission (number) (ITT, Double Blind Week 12): 108 | QIDS score ≦5: Subjects without Remission (percentage) (ITT, Double Blind Week 12): (81%) | QIDS reduction from baseline ≧50%: Subjects with Response (number) (ITT, Double Blind Week 14): 67 | QIDS reduction from baseline ≧50%: Subjects with Response (percentage) (ITT, Double Blind Week 14): 50% | QIDS reduction from baseline ≧50%: Subjects without Response (number) (ITT, Double Blind Week 14): 66 | QIDS reduction from baseline ≧50%: Subjects without Response (percentage) (ITT, Double Blind Week 14): 50% | QIDS score ≦5: Subjects with Remission (number) (ITT, Double Blind Week 14): 45 | QIDS score ≦5: Subjects with Remission (percentage) (ITT, Double Blind Week 14): (34%) | QIDS score ≦5: Subjects without Remission (number) (ITT, Double Blind Week 14): 88 | QIDS score ≦5: Subjects without Remission (percentage) (ITT, Double Blind Week 14): (66%) | QIDS reduction from baseline ≧50%: Subjects with Response (number) (ITT, Double Blind Week 16): 88 | QIDS reduction from baseline ≧50%: Subjects with Response (percentage) (ITT, Double Blind Week 16): 66% | QIDS reduction from baseline ≧50%: Subjects without Response (number) (ITT, Double Blind Week 16): 45 | QIDS reduction from baseline ≧50%: Subjects without Response (percentage) (ITT, Double Blind Week 16): 34% | QIDS score ≦5: Subjects with Remission (number) (ITT, Double Blind Week 16): 60 | QIDS score ≦5: Subjects with Remission (percentage) (ITT, Double Blind Week 16): (45%) | QIDS score ≦5: Subjects without Remission (number) (ITT, Double Blind Week 16): 73 | QIDS score ≦5: Subjects without Remission (percentage) (ITT, Double Blind Week 16): (55%) | QIDS-SR Mean Difference between TC-5214 and Placebo (ITT, Double Blind Week 16 LOCF (change from Week 8)): 3.79 | QIDS reduction from baseline ≧50%: Subjects with Response (number) [3]: 92 | QIDS reduction from baseline ≧50%: Subjects with Response (percentage) [3]: 69% | QIDS reduction from baseline ≧50%: Subjects without Response (number) [3]: 41 | QIDS reduction from baseline ≧50%: Subjects without Response (percentage) [3]: 31% | QIDS score ≦5: Subjects with Remission (number) [3]: 75 | QIDS score ≦5: Subjects with Remission (percentage) [3]: (56%) | QIDS score ≦5: Subjects without Remission (number) [3]: 58 | QIDS score ≦5: Subjects without Remission (percentage) [3]: (44%) | QIDS-SR Adjusted Mean change [4]: −0.52 | QIDS-SR Mean Difference between TC-5214 and Placebo [4]: 0.58 | QIDS-SR Difference vs Placebo + CIT (ITT, Week 8 to Week 16 LOCF): −3.76 | QIDS-SR Adj. Mean change (ITT, change from Week 8 (double-blind baseline) to Week 16 LOCF, add-on to citalopram): −8.07 | QIDS-SR score change at Week 18 compared with placebo (PP population, Week 18, result in words): statistically significant decrease | QIDS reduction from baseline ≧50%: Subjects with Response (number) (PP, Double Blind Week 10): 25 | QIDS reduction from baseline ≧50%: Subjects with Response (percentage) (PP, Double Blind Week 10): 22% | QIDS reduction from baseline ≧50%: Subjects without Response (number) (PP, Double Blind Week 10): 88 | QIDS reduction from baseline ≧50%: Subjects without Response (percentage) (PP, Double Blind Week 10): 78% | QIDS score ≦5: Subjects with Remission (number) (PP, Double Blind Week 10): 17 | QIDS score ≦5: Subjects with Remission (percentage) (PP, Double Blind Week 10): 15% | QIDS score ≦5: Subjects without Remission (number) (PP, Double Blind Week 10): 96 | QIDS score ≦5: Subjects without Remission (percentage) (PP, Double Blind Week 10): 85% | QIDS reduction from baseline ≧50%: Subjects with Response (number) (PP, Double Blind Week 12): 40 | QIDS reduction from baseline ≧50%: Subjects with Response (percentage) (PP, Double Blind Week 12): 35% | QIDS reduction from baseline ≧50%: Subjects without Response (number) (PP, Double Blind Week 12): 73 | QIDS reduction from baseline ≧50%: Subjects without Response (percentage) (PP, Double Blind Week 12): 65% | QIDS score ≦5: Subjects with Remission (number) (PP, Double Blind Week 12): 23 | QIDS score ≦5: Subjects with Remission (percentage) (PP, Double Blind Week 12): 20% | QIDS score ≦5: Subjects without Remission (number) (PP, Double Blind Week 12): 90 | QIDS score ≦5: Subjects without Remission (percentage) (PP, Double Blind Week 12): 80% | QIDS reduction from baseline ≧50%: Subjects with Response (number) (PP, Double Blind Week 14): 59 | QIDS reduction from baseline ≧50%: Subjects with Response (percentage) (PP, Double Blind Week 14): 52% | QIDS reduction from baseline ≧50%: Subjects without Response (number) (PP, Double Blind Week 14): 54 | QIDS reduction from baseline ≧50%: Subjects without Response (percentage) (PP, Double Blind Week 14): 48% | QIDS score ≦5: Subjects with Remission (number) (PP, Double Blind Week 14): 39 | QIDS score ≦5: Subjects with Remission (percentage) (PP, Double Blind Week 14): 35% | QIDS score ≦5: Subjects without Remission (number) (PP, Double Blind Week 14): 74 | QIDS score ≦5: Subjects without Remission (percentage) (PP, Double Blind Week 14): 65% | QIDS reduction from baseline ≧50%: Subjects with Response (number) (PP, Double Blind Week 16): 80 | QIDS reduction from baseline ≧50%: Subjects with Response (percentage) (PP, Double Blind Week 16): 71% | QIDS reduction from baseline ≧50%: Subjects without Response (number) (PP, Double Blind Week 16): 33 | QIDS reduction from baseline ≧50%: Subjects without Response (percentage) (PP, Double Blind Week 16): 29% | QIDS score ≦5: Subjects with Remission (number) (PP, Double Blind Week 16): 55 | QIDS score ≦5: Subjects with Remission (percentage) (PP, Double Blind Week 16): 49% | QIDS score ≦5: Subjects without Remission (number) (PP, Double Blind Week 16): 58 | QIDS score ≦5: Subjects without Remission (percentage) (PP, Double Blind Week 16): 51% | QIDS-SR Adjusted Mean change [5]: −8.60 | QIDS-SR Mean Difference between TC-5214 and Placebo [5]: 3.90 | QIDS reduction from baseline ≧50%: Subjects with Response (number) [6]: 84 | QIDS reduction from baseline ≧50%: Subjects with Response (percentage) [6]: 74% | QIDS reduction from baseline ≧50%: Subjects without Response (number) [6]: 29 | QIDS reduction from baseline ≧50%: Subjects without Response (percentage) [6]: 26% | QIDS score ≦5: Subjects with Remission (number) [6]: 69 | QIDS score ≦5: Subjects with Remission (percentage) [6]: 61% | QIDS score ≦5: Subjects without Remission (number) [6]: 44 | QIDS score ≦5: Subjects without Remission (percentage) [6]: 39% | QIDS-SR Adjusted Mean change [7]: −0.65 | QIDS-SR Mean Difference between TC-5214 and Placebo [7]: 0.84
